From ChEMBL document CHEMBL1125536, “Studies on neurokinin antagonists. 2. Design and structure-activity relationships of novel tripeptide substance P antagonists, N alpha-[N alpha-(N alpha-acetyl-L-threonyl)-N1-formyl-D-tryptophyl]-N- methyl-N-(phenylmethyl)-L-phenylalaninamide and its related compounds” (J Med Chem, 1992) come the findings set out here.

A short description of test [1]: Inhibition of [3H]SP binding to guinea pig lung membranes.
For test [2], the target named is Substance-P receptor (Cavia porcellus, UniProt P30547). The test is described as follows: Compound was tested for the inhibition of [3H]SP binding to guinea pig lung membranes; Not active.
The species named for test [3] is Cavia porcellus. The experiment in a line: Compound was tested for the inhibition of SP-induced contraction of isolated guinea pig trachea strips. The test is classed as functional.

pIC50: −log10 of the molar value. Square brackets hold non-standard residues; d marks the D form. Peptide text beside a SMILES is read from it. * marks the point of attachment. Boc = CC(C)(C)OC(=O)*; OBn = c1ccc(CO*)cc1; For = O=C*

Sequence of Substance-P receptor (P30547 whole entry): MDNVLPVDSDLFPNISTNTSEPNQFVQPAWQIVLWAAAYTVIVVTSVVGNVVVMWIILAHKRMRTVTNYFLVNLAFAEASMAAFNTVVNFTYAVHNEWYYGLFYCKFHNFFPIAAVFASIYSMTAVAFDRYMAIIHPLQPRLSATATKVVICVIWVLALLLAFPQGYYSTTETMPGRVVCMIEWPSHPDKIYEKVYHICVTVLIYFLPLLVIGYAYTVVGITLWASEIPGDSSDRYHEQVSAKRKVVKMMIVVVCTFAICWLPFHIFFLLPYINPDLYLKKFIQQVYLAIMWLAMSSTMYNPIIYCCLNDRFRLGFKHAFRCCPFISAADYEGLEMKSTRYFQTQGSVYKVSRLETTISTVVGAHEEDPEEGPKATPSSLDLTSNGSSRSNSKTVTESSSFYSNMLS

In the case of `CC(=O)NC(Cc1c[nH]cn1)C(=O)N[C@H](Cc1cn(C=O)c2ccccc12)C(=O)N[C@@H](Cc1ccccc1)C(=O)N(C)Cc1ccccc1` (stereo partly drawn), in test [1], the negative-log IC50 (pIC50) is 7.00. On the same count and under the same terms, next, `CN(Cc1ccccc1)C(=O)[C@H](Cc1ccccc1)NC(=O)[C@@H](Cc1cn(C=O)c2ccccc12)NC(=O)CC(NC(=O)OC(C)(C)C)C(N)=O` (stereo partly drawn): 6.74.

Turning to `CC(O)C(NC(=O)CCC(=O)O)C(=O)N[C@H](Cc1cn(C=O)c2ccccc12)C(=O)N[C@@H](Cc1ccccc1)C(=O)N(C)Cc1ccccc1` (stereo partly drawn), in test [2], the IC50 result is on record as “Not Active”.

Turning to `CC(O)C(NC(=O)CCCC(=O)O)C(=O)N[C@H](Cc1cn(C=O)c2ccccc12)C(=O)N[C@@H](Cc1ccccc1)C(=O)N(C)Cc1ccccc1` (stereo partly drawn), the IC50 entry in test [2] was “Not Active”. `CC(C)(C)OC(=O)N[C@@H](CCC(N)=O)C(=O)N[C@H](Cc1cn(C=O)c2ccccc12)C(=O)N[C@@H](Cc1ccccc1)C(=O)OCc1ccccc1` (Boc-Gln-[dW](For)-Phe-OBn) had a negative logarithm of the IC50 (pIC50) in test [1] of 7.05. Consider `CC(=O)NC(C(=O)N[C@H](Cc1cn(C=O)c2ccccc12)C(=O)N[C@@H](Cc1ccccc1)C(=O)N(C)Cc1ccccc1)C(C)O` (stereo partly drawn), for which the negative-log IC50 (pIC50) in test [1] is 8.24; in test [3], 5.64. On to `CN(Cc1ccccc1)C(=O)[C@H](Cc1ccccc1)NC(=O)[C@@H](Cc1cn(C=O)c2ccccc12)NC(=O)[C@H](CCC(N)=O)NC(=O)OC(C)(C)C`, for which the negative logarithm of the IC50 (pIC50) in test [1] is 7.32. Same read-out and setting: then `CC(=O)NC(CCC(=O)N(C)C)C(=O)N[C@H](Cc1cn(C=O)c2ccccc12)C(=O)N[C@@H](Cc1ccccc1)C(=O)N(C)Cc1ccccc1` (stereo partly drawn), with 7.52; and `CC(C)(C)OC(=O)N[C@@H](CCC(N)=O)C(=O)N[C@H](Cc1cn(C=O)c2ccccc12)C(=O)N[C@@H](Cc1ccccc1)C(=O)CCc1ccccc1`, with 6.37; and `CN(Cc1ccccc1)C(=O)[C@H](Cc1ccccc1)NC(=O)[C@@H](Cc1cn(C=O)c2ccccc12)NC(=O)C1CC(O)CN1C(=O)OC(C)(C)C` (stereo partly drawn), with 6.70. Same read-out and setting: then `CC(=O)NC(CO)C(=O)N[C@H](Cc1cn(C=O)c2ccccc12)C(=O)N[C@@H](Cc1ccccc1)C(=O)N(C)Cc1ccccc1` (stereo partly drawn), with 7.30; and `CC(C)(C)OC(=O)N[C@@H](CCC(N)=O)C(=O)N[C@H](Cc1cn(C=O)c2ccccc12)C(=O)N[C@@H](Cc1ccccc1)C(=O)NCc1ccccc1`, with 6.07; and `CC(O)C(NC(=O)CO)C(=O)N[C@H](Cc1cn(C=O)c2ccccc12)C(=O)N[C@@H](Cc1ccccc1)C(=O)N(C)Cc1ccccc1` (stereo partly drawn), with 7.70.

`CN(C)C(=O)CCC(NC(=O)OC(C)(C)C)C(=O)N[C@H](Cc1cn(C=O)c2ccccc12)C(=O)N[C@@H](Cc1ccccc1)C(=O)N(C)Cc1ccccc1` (stereo partly drawn): the pIC50 in test [1] is 7.40. Still for that read-out and setting: then `CC(O)C(NC(=O)N1CCOCC1)C(=O)N[C@H](Cc1cn(C=O)c2ccccc12)C(=O)N[C@@H](Cc1ccccc1)C(=O)N(C)Cc1ccccc1` (stereo partly drawn), with 7.70. Still for that read-out and setting: then `CCN(CC)CCC(=O)NC(C(=O)N[C@H](Cc1cn(C=O)c2ccccc12)C(=O)N[C@@H](Cc1ccccc1)C(=O)N(C)Cc1ccccc1)C(C)O` (stereo partly drawn), with 7.70. Take `CN(Cc1ccccc1)C(=O)[C@H](Cc1ccccc1)NC(=O)[C@@H](Cc1cn(C=O)c2ccccc12)NC(=O)C(Cc1c[nH]cn1)NC(=O)OC(C)(C)C` (stereo partly drawn): the pIC50 in test [1] was 6.85.

In test [1], `C[C@@H](O)[C@H](NC(=O)CN)C(=O)N[C@H](Cc1cn(C=O)c2ccccc12)C(=O)N[C@@H](Cc1ccccc1)C(=O)N(C)Cc1ccccc1` showed a negative-log IC50 (pIC50) of 6.64.

In turn, `CC(O)C(C(=O)N[C@H](Cc1cn(C=O)c2ccccc12)C(=O)N[C@@H](Cc1ccccc1)C(=O)N(C)Cc1ccccc1)N(C)C(=O)OC(C)(C)C` (stereo partly drawn) gave a pIC50 in test [1] of 6.54.

In test [1], `CC(O)C(N)C(=O)N[C@H](Cc1cn(C=O)c2ccccc12)C(=O)N[C@@H](Cc1ccccc1)C(=O)N(C)Cc1ccccc1` (stereo partly drawn) gave a negative logarithm of the IC50 (pIC50) of 6.22.

For `CC(O)C(NC(=O)OC(C)(C)C)C(=O)N[C@H](Cc1cn(C=O)c2ccccc12)C(=O)N[C@@H](Cc1ccccc1)C(=O)N(C)Cc1ccccc1` (stereo partly drawn), in test [1], the negative-log IC50 (pIC50) was 7.22. `CC(O)C(NC(=O)CCN)C(=O)N[C@H](Cc1cn(C=O)c2ccccc12)C(=O)N[C@@H](Cc1ccccc1)C(=O)N(C)Cc1ccccc1` (stereo partly drawn) showed a negative logarithm of the IC50 (pIC50) in test [1] of 7.00.
